Measurements from patent publication US12115209B2, “ROMO1-derived antimicrobial peptides including lysine substitution and variants thereof” (KOREA UNIVERSITY RESEARCH AND BUSINESS FOUNDATION, priority 2019, dated 2024).
No end group written: not given here.

What was measured:
Test in all cases: Minimum bactericidal concentration (MBC) assay
Format in all cases: cell-based
[1] = system: Staphylococcus aureus (ATCC 29213); settings: for MBC Staphylococcus aureus: Tables 11-21, no unit printed
Protocol: (§1) First, each of Pseudomonas aeruginosa (ATCC 27853) and Staphylococcus aureus (ATCC 29213) was cultured in 3% (w/v) TSB (tryptic soy broth) liquid medium at 37° C. and 200 rpm for 4 hours, and then further cultured under the same conditions for 3 hours to a concentration of 5×10^6 CFU/ml. Strain solutions were prepared by diluting each of the further cultured strains with SP (sodium phosphate; 10 mM sodium phosphate, 1% TSB) buffer to a final concentration of 2×10^5 CFU/ml.
(§2) Then, each peptide at varying concentrations (0 μg/ml to 300 μg/ml) was dispensed into each well of a 96-well microplate, and 100 μl (1×10^5 CFU/ml) of each of the prepared strain solutions was added thereto, mixed therewith, and allowed to react with the peptide in an incubator at 37° C. for 1 hour.
(§3) In addition, 30 g/L of TS (tryptic soy) and 15 g/L of agar were dissolved in distilled water and sterilized, and then 25 ml of the solution was poured onto a 100 mm round plate and solidified at room temperature for one day or more, thereby preparing a TS agar plate. 10 μl of each reaction solution of the peptide and the strain was plated on the TS agar plate at a constant size, and incubated in an incubator at 37° C. for 18 hours, and then colony formation on the plate was checked. The minimum bactericidal concentration was defined as the minimum concentration of the peptide at which no colony was formed, and the experimental results are shown in Table 1 below.

[2] = system: Pseudomonas aeruginosa (ATCC 27853); settings: for MBC Pseudomonas aeruginosa: Tables 11-21, no unit printed
Protocol: as §1, §2, §3

[3] = system: Methicillin-resistant Staphylococcus aureus (MRSA, ATCC 33591); settings: Tables 11-21, no unit printed
Protocol: First, each of Pseudomonas aeruginosa (ATCC 27853) and Staphylococcus aureus (ATCC 29213) was cultured in 3% (w/v) TSB (tryptic soy broth) liquid medium at 37° C. and 200 rpm for 4 hours, and then further cultured under the same conditions for 3 hours to a concentration of 5×10^6 CFU/ml. Strain solutions were prepared by diluting each of the further cultured strains with SP (sodium phosphate; 10 mM sodium phosphate, 1% TSB) buffer to a final concentration of 2×10^5 CFU/ml. […]
In addition, 30 g/L of TS (tryptic soy) and 15 g/L of agar were dissolved in distilled water and sterilized, and then 25 ml of the solution was poured onto a 100 mm round plate and solidified at room temperature for one day or more, thereby preparing a TS agar plate. 10 μl of each reaction solution of the peptide and the strain was plated on the TS agar plate at a constant size, and incubated in an incubator at 37° C. for 18 hours, and then colony formation on the plate was checked.
Specifically, each type of bacteria was cultured in 3% (w/v) TSB (tryptic soy broth) liquid medium at 37° C. and 200 rpm for 4 hours, and then further cultured under the same conditions for 3 hours to a concentration of 5×10^6 CFU/ml. Strain solutions were prepared by diluting each of the further cultured strains with SP buffer to a final concentration of 2×10^5 CFU/ml.
Then, the KU-5878 peptide at varying concentrations (0 μg/ml to 300 μg/ml) was dispensed into each well of a 96-well microplate, and 100 μl (1×10^5 CFU/ml) of each of the prepared strain solutions was added thereto, mixed therewith, and allowed to react with the peptide in an incubator at 37° C. for 1 hour.
In addition, 10 μl of each reaction solution of the peptide and the strain was plated on the TS agar plate at a constant size, and incubated in an incubator at 37° C. for 18 hours, and then colony formation on the plate was checked.

CRPA = settings: Tables 11-21, no unit printed

Molecule | MBC Staphylococcus aureus [1] | MBC Pseudomonas aeruginosa [2] | MBC MRSA [3] | MBC CRPA (CRPA) | MBC value (μg/ml) against Staphylococcus aureus ([1]; ATCC 29213, reaction 37° C. 1 hour, no bovine serum) | MBC value (μg/ml) against Pseudomonas aeruginosa ([2]; ATCC 27853, reaction 37° C. 1 hour, no bovine serum)
-KMMKKGGKFGTFMAIG-GIR [Peptide K4-d58K-d75M] | 150 µg/mL | 150 µg/mL | 180 µg/mL | 160 µg/mL |  | 
-TMMQSGGTFGTFMAIGMGIR [Peptide 5878-d58K] | 300 µg/mL | 300 µg/mL | > 300 µg/mL | 300 µg/mL |  | 
ATMMQSGGTFGTFMAIGMGIR [KU-5878-K58A] | > 300 µg/mL | > 300 µg/mL | > 300 µg/mL | > 300 µg/mL |  | 
K-MMQSGGTFGTFMAIGMGIR [Peptide 5878-d59T] | 150 µg/mL | 150 µg/mL | 150 µg/mL | 150 µg/mL |  | 
KAMMQSGGTFGTFMAIGMGIR [KU-5878-T59A] | 120 µg/mL | 150 µg/mL | 140 µg/mL | 130 µg/mL |  | 
KK-MKKGGKFGTFMAIG-GIR [Peptide K4-d60M-d75M] | 200 µg/mL | 200 µg/mL | 210 µg/mL | 200 µg/mL |  | 
KKMMKKGGKFGT-MAIGMGIR [5878 K4-d70F] | 140 µg/mL | 100 µg/mL | 110 µg/mL | 160 µg/mL |  | 
KKMMKKGGKFGTFM-IG-GIR [Peptide K4-d72A-d75M] | 200 µg/mL | 200 µg/mL | 200 µg/mL | 200 µg/mL |  | 
KKMMKKGGKFGTFMA-GMGIR [Peptide 5878-K4-d73I] | 300 µg/mL | 300 µg/mL | > 300 µg/mL | > 300 µg/mL |  | 
KRMMQSGGTFGTFMAIGMGIR [KU-5878-T59R] | 25 µg/mL | 30 µg/mL | 30 µg/mL | 30 µg/mL |  | 
KSMMQSGGTFGTFMAIGMGIR [KU-5878-T59S] | > 300 µg/mL | > 300 µg/mL | > 300 µg/mL | > 300 µg/mL |  | 
KT-MQS-GTFGTF--IG-GIR [5878-d60M, d64G, d71M, d72A, d75M] | 200 µg/mL | 200 µg/mL | 200 µg/mL | 200 µg/mL |  | 
KT-MQS-GTFGTFM-IG-GIR [5878-d60M, d64G, d72A, d75M] | 100 µg/mL | 120 µg/mL | 120 µg/mL | 120 µg/mL |  | 
KT-MQS-GTFGTFMAIGMGIR [5878-d60M, d64G] | 100 µg/mL | 100 µg/mL | 110 µg/mL | 100 µg/mL |  | 
KT-MQSGGTFGTFM-IG-GIR [5878-d60M, d72A, d75M] | 280 µg/mL | 300 µg/mL | 300 µg/mL | 300 µg/mL |  | 
KTAMQSGGTFGTFMAIGMGIR [KU-5878-M60A] | > 300 µg/mL | > 300 µg/mL | > 300 µg/mL | > 300 µg/mL |  | 

Molecule | MBC Staphylococcus aureus [1] | MBC Pseudomonas aeruginosa [2] | MBC MRSA [3] | MBC CRPA (CRPA) | MBC value (μg/ml) against Staphylococcus aureus ([1]; ATCC 29213, reaction 37° C. 1 hour, no bovine serum) | MBC value (μg/ml) against Pseudomonas aeruginosa ([2]; ATCC 27853, reaction 37° C. 1 hour, no bovine serum)
KTMMASGGTFGTFMAIGMGIR [KU-5878-Q62A] | > 300 µg/mL | > 300 µg/mL | > 300 µg/mL | > 300 µg/mL |  | 
KTMMKSGGTFGTFMAIGMGIR [KU-5878-Q62K] | 80 µg/mL | 90 µg/mL | 90 µg/mL | 90 µg/mL |  | 
KTMMQ-GGTFGTFMAIGMGIR [Peptide 5878-d63S] | 200 µg/mL | 200 µg/mL | 200 µg/mL | 200 µg/mL |  | 
KTMMQAGGTFGTFMAIGMGIR [KU-5878-S63A] | 300 µg/mL | 300 µg/mL | > 300 µg/mL | 300 µg/mL |  | 
KTMMQKGGTFGTFMAIGMGIR [KU-5878-S63K] | 50 µg/mL | 60 µg/mL | 50 µg/mL | 50 µg/mL |  | 
KTMMQRGGTFGTFMAIGMGIR [KU-5878-S63R] | 15 µg/mL | 20 µg/mL | 25 µg/mL | 20 µg/mL |  | 
KTMMQS-GTFGTF-AIGM-IR [5878-d64G, d71M, d76G] | 200 µg/mL | 200 µg/mL | 200 µg/mL | 200 µg/mL |  | 
KTMMQSGGAFGTFMAIGMGIR [KU-5878-T66A] | > 300 µg/mL | > 300 µg/mL | > 300 µg/mL | > 300 µg/mL |  | 
KTMMQSGGKFGTFMAIGMGIR [KU-5878-T66K] | 60 µg/mL | 80 µg/mL | 80 µg/mL | 70 µg/mL |  | 
KTMMQSGGRFGTFMAIGMGIR [KU-5878-T66R] | 90 µg/mL | 80 µg/mL | 90 µg/mL | 80 µg/mL |  | 
KTMMQSGGSFGTFMAIGMGIR [KU-5878-T66S] | > 300 µg/mL | > 300 µg/mL | > 300 µg/mL | > 300 µg/mL |  | 
KTMMQSGGT-GTFMAIGMGIR [Peptide 5878-d67F] | 200 µg/mL | 200 µg/mL | 200 µg/mL | 200 µg/mL |  | 
KTMMQSGGTAGTFMAIGMGIR [KU-5878-F67A] | > 300 µg/mL | > 300 µg/mL | > 300 µg/mL | > 300 µg/mL |  | 
KTMMQSGGTFG-FMAIGMGIR [Peptide 5878-d69T] | 120 µg/mL | 120 µg/mL | 140 µg/mL | 140 µg/mL |  | 
MPVAVGPYGQSQPSCFDRVKMGFVMGCAVGMAAGALFGTFSCLRIGMRGRELMGGIGKTMMQSGGTFGTFMAIGMGIRC (protein, Homo sapiens Romo1) MPVAVGPYGQSQPSCFDRVKMGFVMGCAVGMAAGALFGTFSCLRIGMRGRELMGGIGKTMMQSGGTFGTFMAIGMGIRC |  |  |  |  | Insoluble | Insoluble
